Earlier results on one compound are cited in US12168056B2, “Scintillator nanocrystal-containing compositions and methods for their use” (The Regents of the University of California, priority 2013, dated 2024).

This data set relates to human glioblastoma (GBM) cells.

Turning to `COc1cccc2c1C(=O)c1c(O)c3c(c(O)c1C2=O)C[C@@](O)(C(=O)CO)C[C@@H]3O[C@H]1C[C@H](N)[C@H](O)[C@H](C)O1` [Dox, doxorubicin], the “suppression of GBM cells in culture” value was “potently suppresses”.
